Measured values from BindingDB's records for PubMed 33077264 (Menoufia University, 2021).

Molecular target: Lysine-specific histone demethylase 1A (Homo sapiens, UniProt O60341)
Experiment: Inhibition of N-terminal GST tagged LSD1 (residues 171 - 852) (unknown origin) overexpressed in Escherichia coli using ARTK(Me)2QTARKSTGGKAPRKQLAas substrate incubated for 20 mins by spectrophotometric analysis

Nc1ccccc1NC(=O)c1ccc(CCCC(=O)Nc2ccc(C3CC3N)cc2)cc1 (stereo unspecified)
IC50: 330 nM
